Measured values reported in the supplement of paper PMC11451515.

Tested on: P12-Ichikawa
Test: cell viability relative to DMSO control; higher = less cytotoxic
Conditions: 48 h
Summary of the method: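 NOMO1 or SEM (500 cells/well) or P12-Ichikawa (1000 cells/well) leukemia cells were adapted for at least four passages in each medium. They were seeded in 1536-well plates (5 μl) and pin-dosed with library compounds in DMSO over an 11-point threefold series, 47 μM to 0.79 nM. CellTiter-Glo One luminescence was read after 48 h at 37°C. Viability is the per-plate percentage relative to DMSO wells, with cell-free wells as background.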

[1] = HPLM + 10% dialyzed FBS, 0.000781 µM
[2] = HPLM + 10% dialyzed FBS, 0.00234 µM
[3] = HPLM + 10% dialyzed FBS, 0.00702 µM
[4] = HPLM + 10% dialyzed FBS, 0.0211 µM
[5] = HPLM + 10% dialyzed FBS, 0.0632 µM
[6] = HPLM + 10% dialyzed FBS, 0.19 µM
[7] = HPLM + 10% dialyzed FBS, 0.569 µM
[8] = HPLM + 10% dialyzed FBS, 1.71 µM
[9] = HPLM + 10% dialyzed FBS, 5.12 µM
[10] = HPLM + 10% dialyzed FBS, 15.4 µM
[11] = HPLM + 10% dialyzed FBS, 46.1 µM
[12] = RPMI 5 mM glucose + 10% FBS, 0.000781 µM
[13] = RPMI 5 mM glucose + 10% FBS, 0.00234 µM
[14] = RPMI 5 mM glucose + 10% FBS, 0.00702 µM
[15] = RPMI 5 mM glucose + 10% FBS, 0.0211 µM
[16] = RPMI 5 mM glucose + 10% FBS, 0.0632 µM
[17] = RPMI 5 mM glucose + 10% FBS, 0.19 µM
[18] = RPMI 5 mM glucose + 10% FBS, 0.569 µM
[19] = RPMI 5 mM glucose + 10% FBS, 1.71 µM
[20] = RPMI 5 mM glucose + 10% FBS, 5.12 µM
[21] = RPMI 5 mM glucose + 10% FBS, 15.4 µM
[22] = RPMI 5 mM glucose + 10% FBS, 46.1 µM
[23] = RPMI 5 mM glucose + 10% dialyzed FBS, 0.000781 µM
[24] = RPMI 5 mM glucose + 10% dialyzed FBS, 0.00234 µM
[25] = RPMI 5 mM glucose + 10% dialyzed FBS, 0.00702 µM
[26] = RPMI 5 mM glucose + 10% dialyzed FBS, 0.0211 µM
[27] = RPMI 5 mM glucose + 10% dialyzed FBS, 0.0632 µM
[28] = RPMI 5 mM glucose + 10% dialyzed FBS, 0.19 µM
[29] = RPMI 5 mM glucose + 10% dialyzed FBS, 0.569 µM
[30] = RPMI 5 mM glucose + 10% dialyzed FBS, 1.71 µM
[31] = RPMI 5 mM glucose + 10% dialyzed FBS, 5.12 µM
[32] = RPMI 5 mM glucose + 10% dialyzed FBS, 15.4 µM
[33] = RPMI 5 mM glucose + 10% dialyzed FBS, 46.1 µM

Compound	cell viability [1]	cell viability [2]	cell viability [3]	cell viability [4]	cell viability [5]	cell viability [6]	cell viability [7]	cell viability [8]	cell viability [9]	cell viability [10]	cell viability [11]	cell viability [12]	cell viability [13]	cell viability [14]	cell viability [15]	cell viability [16]	cell viability [17]	cell viability [18]	cell viability [19]	cell viability [20]	cell viability [21]	cell viability [22]	cell viability [23]	cell viability [24]	cell viability [25]	cell viability [26]	cell viability [27]	cell viability [28]	cell viability [29]	cell viability [30]	cell viability [31]	cell viability [32]	cell viability [33]
O=C(c1ccc(F)cc1)N1CCC[C@H](c2nc(-c3ccc(F)cc3)no2)C1	119%	121%	120%	124%	117%	121%	116%	113%	107%	113%	106%	115%	122%	122%	128%	144%	120%	128%	116%	111%	114%	115%	120%	128%	123%	119%	117%	126%	116%	105%	118%	110%	111%
Cc1coc2c1C(=O)C(=O)c1c-2ccc2c(C)cccc12	–	–	–	–	–	–	–	–	–	–	–	120%	123%	107%	112%	128%	120%	114%	123%	111%	121%	115%	125%	116%	124%	117%	116%	112%	117%	109%	109%	103%	108%
CCC1(c2ccccc2)C(=O)NCNC1=O	103%	114%	118%	120%	120%	118%	121%	119%	116%	118%	119%	104%	111%	122%	128%	134%	127%	129%	126%	142%	143%	131%	94.5%	109%	118%	115%	120%	116%	117%	118%	126%	121%	117%
FC1=C(C=C(C\C2=N\NC(=O)C3=C2C=CC=C3)C=C1)C(=O)N4CCN(CC4)C(=O)C5CC5	81.1%	90.8%	94%	96.2%	99%	87.4%	95.6%	85.7%	85.5%	88.3%	49.4%	81.6%	84.1%	86.7%	88.2%	88.7%	86.5%	86.1%	82.5%	83.8%	72.1%	38.9%	78.9%	87.3%	86.5%	87.1%	91.2%	93.2%	82%	82.1%	78.9%	73%	53.9%
CC(C)N[C@@H]1CCn2c(=O)[nH]c3cccc(c32)[C@H]1O	111%	112%	118%	120%	117%	115%	109%	112%	97.1%	107%	100%	129%	112%	121%	122%	114%	104%	116%	110%	110%	113%	106%	105%	104%	116%	114%	109%	108%	99.6%	105%	104%	97.9%	93.8%
CC(C)OC(=O)C(C(=O)OC(C)C)=C1S\C=C/S1	138%	124%	122%	133%	113%	124%	123%	124%	126%	118%	101%	–	–	–	–	–	–	–	–	–	–	–	–	–	–	–	–	–	–	–	–	–	–
